The source of these data is US20130039856A1, “Products and Methods” (priority 2010, published 2013).

Series [1] has as its system C. elegans. In words: C. elegans lifespan analysis on E. coli plates. It is filed as in vivo, Caenorhabditis elegans. The conditions noted are these: for increase in C. elegans lifespan: vs control; for effect of supplementation on extended lifespan of C. elegans on ubiG mutant bacteria: Q-deficient ubiG bacteria; for effect of supplementation on extended lifespan of C. elegans on ubiG mutant bacteria / effect of supplementation on lifespan of C. elegans on control HT115(DE3) strain: test for toxic effect of supplement; for effect of supplementation on lifespan of C. elegans on control HT115(DE3) strain: control bacteria; for effect of media supplementation on C. elegans lifespan on aroD mutant bacteria: supplement 40 μg/ml (PABA 0.29 mM), glp-4(bn1), 25° C. The method, then:
Nematode growth media was prepared as described using 2.5 g/l soy peptone (Sigma P6713). Where indicated plates were supplemented with shikimic acid (40 μg/ml), I-phenylalanine, I-tryptophan and I-tyrosine (all at 40 μg/ml), 4-amino benzoic acid (PABA 40 μg/ml=0.29 mM), sodium folate (0.29 mM and 0.58 mM folic acid dissolved in NaOH). For the kanamycin treatment of bacteria, 80 μl of 10 mM kanamycin was added after 24 hours of bacterial growth as described. All compounds were from Sigma-Aldrich.
For all lifespans and unless indicated differently in Supplementary Table 1, survival analyses were performed by the following method: Eggs were prepared from bleaching adults to remove all microbes, and then placed onto plates containing aroD mutant bacteria. Animals were raised at 15° C. until adulthood due to the temperature sensitivity of mutant phenotypes. Gravid adulthoods were used to lay eggs onto fresh aroD mutant plates. At L3/L4 these animals were transferred to 25° C. and larvae of equivalent stage were put onto at least 5 plates of 25 worms for each condition. Animals were transferred to fresh plates after 7 and 14 days and scored for survival every 2-3 days. Lifespan data was analysed by JMP statistical software (SAS). Where relevant, statistical significance was determined using the Log-Rank and Wilcoxon tests of fitting to the Kaplan-Meier survival model.

The subject of series [2] is E. coli. Put plainly: Effect on E. coli growth (absorbance, relative cell numbers). In kind it is cell-based. The method, then: The inventors investigated the effect of SMX on E. coli growth. Under the conditions that caused an increase in C. elegans lifespan, they scraped the E. coli from the agar plates used to culture worms after two days of growth and used absorbance to estimate relative cell numbers. 128 μg/ml SMX caused a mean effect of reducing E. coli numbers by approx 11% (+/−5%, standard error, n=4). There was no effect on growth in liquid culture with the same nutrient conditions as used for lifespan analysis (FIG. 10).

Series [3] relates to C. elegans. Put plainly: HPLC/MS folate levels in worms. It is filed as in vivo. Particulars: worms raised on OP50 bacteria treated with SMX, duplicate experiments, FIG. 9D. From the text:
Similar techniques were used to quantify levels of folates in worms, although proteinase K digestion of the worms was used to get a good extraction of folates. The most abundant folate species in C. elegans using this method of detection was 5-methyl tetrahydrofolate pentaglutamate. Worms raised on aroD bacteria had 25 to 30% less of this folate species than worms on the control bacteria (in duplicate experiments, FIG. 9C). Worms raised OP50 bacteria treated with SMX had approximately 75% less folate than worms raised on the control bacteria (in duplicate experiments, FIG. 9D).

Series [4] deals with E. coli. In words: HPLC/MS folate levels in bacteria. Particulars: SMX-treated OP50 bacteria, duplicate experiments, FIG. 9B. It is filed as cell-based. From the text:
Both the aroD mutation and treatment with SMX inhibit folate synthesis in bacteria. […] This folate species is approximately three fold less abundant in the aroD mutant compared to the control strain (in duplicate experiments, FIG. 9A) and at least 10 times less abundant in the SMX-treated OP50 bacteria compared to the untreated control (in duplicate experiments, FIG. 9B).

The test system of another series is flies. Particulars: cited from earlier work.
For a further series, the system named is worms. The conditions noted are these: cited from earlier work.
In a further series the test system is yeast. The conditions noted are these: cited from earlier work.
In a further series the test system is one species of fish. Particulars: cited from earlier work.
Another series deals with humans aged 60 to 81. Particulars: cited from earlier work.

On to `Cc1cc(NS(=O)(=O)c2ccc(N)cc2)no1` [SMX, sulfamethoxazole], for which the “increase in C. elegans lifespan” value is “around 24%” with C. elegans [1] (16 μg/ml SMX treatment of the bacteria); 27% in the series on C. elegans [1] (64 μg/ml SMX, not significantly different to 16 μg/ml); 33% in the series on C. elegans [1] (128 μg/ml SMX, significantly different to 16 μg/ml (p<0.05)). Further, in the series on C. elegans [1] (inhibition of the bacterial folate pathway, FIG. 6), the “effect on C. elegans lifespan” value is reported as “lifespan can be increased”. Further, the “reduction of E. coli numbers” value in the series on E. coli [2] (128 μg/ml SMX, agar plates, two days of growth, absorbance, +/−5% standard error, n=4) is on record as “approx 11%”. Also, in the series on E. coli [2] (same nutrient conditions as lifespan analysis, FIG. 10), the “effect on E. coli growth in liquid culture” value was “no effect”. Moreover, the “less folate (5-methyl tetrahydrofolate pentaglutamate) in worms vs worms on control bacteria” value with C. elegans [3] is on record as “approximately 75%”. Also, the “formyl tetrahydrofolate triglutamate abundance, decrease vs untreated control” value in the series on E. coli [4] was “at least 10 times”.

For the compound `Nc1nc2ncc(CNc3ccc(C(=O)N[C@@H](CCC(=O)O)C(=O)O)cc3)nc2c(=O)[nH]1` [folate, folic acid], in the series with C. elegans [1], the “effect of supplementation on extended lifespan of C. elegans on ubiG mutant bacteria” value is “no effect” and the “effect of supplementation on lifespan of C. elegans on control HT115(DE3) strain” value was “no effect”. Moreover, in the series with C. elegans [1] (SMX plates, FIG. 8), the “effect of adding folic acid to SMX plates on C. elegans lifespan” value was “reverses the effect of SMX”. For the same compound, the “effect of folate supplementation on C. elegans lifespan on aroD mutant” value in the series on C. elegans [1] (doubled folate concentration (0.58 mM, 2× folate) vs 1× folate, difference not statistically significant) is “slightly shorter”. For the same compound, the “effect of folate supplementation on C. elegans lifespan extension on aroD mutant” value in the series on C. elegans [1] (same molar concentration as PABA (0.29 mM, 1× folate)) is given as “reduced the C. elegans lifespan extension substantially but not completely”.

`Nc1ccc(C(=O)O)cc1` [PABA, para-aminobenzoic acid]: in the series on C. elegans [1], the “effect of supplementation on extended lifespan of C. elegans on ubiG mutant bacteria” value is “no effect”, the “effect of supplementation on lifespan of C. elegans on control HT115(DE3) strain” value is reported as “no effect” and the “effect of media supplementation on C. elegans lifespan on aroD mutant bacteria” value (“effect of media supplementation” below) is reported as “reversed the lifespan increase completely”.

`Oc1ccc(C=Cc2cc(O)cc(O)c2)cc1` [resveratrol]: the extension of lifespan entry with flies is on record as “up to 30%”; in the series with worms, “up to 30%”; in the series with yeast, “up to 60%”; with one species of fish it was around 60%.

As for `CC(C)(N)C(=O)N[C@H](COCc1ccccc1)C(=O)N1CCC2(CC1)CN(S(C)(=O)=O)c1ccccc12` [MK-677], the “muscle mass lost due to ageing restored” value with humans aged 60 to 81 is recorded as 20%.

On to `O=C(O)C1=C[C@@H](O)[C@@H](O)[C@H](O)C1` [shikimic acid], for which, in the series with C. elegans [1], the “effect of media supplementation” value was “revert to normal”.

As to `N[C@@H](Cc1c[nH]c2ccccc12)C(=O)O` [tryptophan], the “effect of media supplementation” value in the series on C. elegans [1] is recorded as “small negative effect”.
